Literature values as cited in patent US8883844B2, “Nitric oxide releasing amino acid ester for treatment of pulmonary hypertension and other respiratory conditions” (Nitrogenix Inc., priority 2010, dated 2014).
Like-named read-outs stand apart in the source and are kept apart here.

What was measured:
[1] = oral; 3, 6, 9 and 12 months
[2] = open pilot study

Q: Which “benefit in PAH” value [1] does the source give for `CC#CCC(C)[C@H](O)/C=C/[C@@H]1[C@H]2c3cccc(CCCC(=O)O)c3O[C@H]2C[C@H]1O` (mixture of isomers) [Beraprost, beraprost] here?
A: benefit in a study in PAH at 3 and 6 months but not at 9 or 12 months

Q: What does the source list for `COc1ccccc1Oc1c(NS(=O)(=O)c2ccc(C(C)(C)C)cc2)nc(-c2ncccn2)nc1OCCO` [bosentan]?
A: liver toxicity (higher dose): liver toxicity occurred; six minute walk test (two placebo controlled trials, whole group, improvement greater at higher doses): improved

Q: Which “decrease in pulmonary vascular resistance” value [2] does the source give for `Cc1cc2c(cc1CC(=O)c1sccc1S(=O)(=O)Nc1onc(C)c1Cl)OCO2` [sitaxsentan] here?
A: 30%

Q: And the “six minute walk test” value [2]?
A: improvement
